Assay results as given in patent publication US7371779B2, “Synergistic compositions of N-acylhomoserine lactones and 4-quinolones” (The Secretary of State for Defense Science and Technology, priority 2001, dated 2008).
Entries after “also recorded” stand apart in the source; their conditions may differ. Like-named read-outs stand apart in the source and are kept apart here.

Assays:
[1] = tested on: murine splenocytes; assay: ConA mitogen-stimulated proliferation of murine splenocytes ([3H]-thymidine incorporation); type: cell-based, mouse (BALB/c); details: for inhibition of ConA induced murine splenocyte proliferation (cpm), in words: ConA 1 μg/ml, BALB/c splenocytes
Description: (§1) Proliferation was assessed by the incorporation of [^3H]-thymidine into DNA. Eight-week-old female BALB/c mice were obtained from Harlan (Bicester, Oxon, UK) and given food and water ad libitum. Splenocyte suspensions were prepared by removing the spleens and placing them into RPMI 1640 medium. The spleens were forced through 70-μm-pore-size wire gauzes using the plunger from a 5-ml syringe to produce a single cell suspension. The cells were pelleted by centrifugation, and erythrocytes were lysed with 0.017 M Tris, 0.144 M ammonium chloride buffer, pH 7.2. Leucocytes were washed twice with RPMI 1640 medium with 2% (vol/vol) foetal calf serum (FCS) and resuspended in complete cell culture medium (CTCM) consisting of RPMI 1640 medium with 5% FCS, 2 mM L-glutamine, and 5×10^−5 M 2-mercaptoethanol. HSL compounds were tested at doubling down dilutions ranging from 1 mM to 0.1 μM in a final volume of 200 μl of CTCM, containing ConA (Sigma, Poole, UK) at 1 μg/ml and 100,000 spleen cells. Following incubation for 48 h at 37° C. in 5% CO2-air, 0.25 μCi [^3H]-thymidine (Amersham) in 10 μl volume made up in RPMI 1640 medium was added and the cells were incubated for a further 24 h. Cells were harvested onto fibreglass filters with a Packard filtermate harvester. After the addition of 25 μl of MicroScint-O (Packard) to each well the filters were counted with the Packard TopCount scintillation counter.
Mitogen (Concanavalin A) induced murine splenocyte proliferation was indicated by the incorporation of tritated thymidine into the DNA in the mouse spleen cells as shown by counts per minute using the scintillation counter. The inhibitory effect of an HSL compound being tested on cell proliferation was indicated by a reduction in counts per minute.
as §1, with “70 μm pore size” for “70-μm-pore-size”, “5 ml” for “5-ml”, “The title compound was” for “HSL compounds were”, “dilutions” for “dilutions ranging from 1 mM to 0.1 μM in a final volume of 200 μl of CTCM,”, “g/ml” for “μg/ml”, “COrair,” for “CO2-air,”
Mitogen (Concanavalin A) induced murine splenocyte proliferation was indicated by the incorporation of tritated thymidine into the DNA in the mouse spleen cells as shown by counts per minute using the scintillation counter. The inhibitory effect of the title compound being tested on cell proliferation was indicated by a reduction in counts per minute.

[2] = tested on: human PBMC; assay: ConA mitogen-stimulated proliferation of human PBMC ([3H]-thymidine incorporation); type: cell-based; details: for IC50: Experiment II, read-out: IC50 in inhibition of ConA induced cell proliferation of PBMC
Description: Blood specimens were obtained with consent from healthy human volunteers. Human peripheral blood mononuclear cells (PBMC) were isolated from heparinised whole blood by buoyant density centrifugation over Histopaque 1077 (Sigma, Poole, UK) at 600 g for 20 minutes. PBMC harvested from the ‘buffy’ layers were washed twice with RPMI 1640 medium and resuspended in CTCM. […] Human PBMC were incubated for 48 h at 37° C. in 5% CO2-air, followed by pulsing with 0.25 μCi [^3H]-thymidine (see above). After a further incubation of 24 h cells were harvested onto fibreglass filters and then counted in the presence of MicroScint-O with the Packard TopCount.
Concanavalin induced cell proliferation of human peripheral blood mononuclear cells (PBMC) was tracked, as described in I above, by a measurement of counts per minute using the scintillation counter. The inhibitory effect of an HSL compound being tested on cell proliferation was indicated by a reduction in counts per minute. […] Columns B, C and D represent different sources of human PBMC samples used.
Plots of counts per minute (cpm) against the concentration of the quorum sensing molecules and the vehicle are shown in FIG. 11.

[3] = tested on: TNF-alpha; assay: TNF-alpha production from LPS-stimulated human PBMC (sandwich ELISA); type: cell-based; details: for inhibition of LPS induced TNF-α production by human PBMC, in words: LPS-stimulated human PBMC
Description: Bacterial lipopolysaccharide (LPS) stimulates the production of a variety of cytokines, including TNF-alpha, from human PBMC; these cytokines in turn influence the development of T cells, supporting a T helper 1 conducive milieu. Human PBMC prepared from whole blood by buoyant density centrifugation were resuspended in CTCM. […] Following incubation for 24 h at 37° C. in 5% CO2-air, the cell culture supernatants were collected and tested for TNF-alpha levels by ‘sandwich’ ELISA. Briefly, 96-well Nunc MaxiSorp (Life Technologies, Paisley, UK) plates were coated with 50 μl of a 2 μg/ml solution of mouse anti-human TNF-alpha monoclonal antibody (Pharmingen, UK) in 0.05 M carbonate/bicarbonate buffer, pH 9.6 overnight at 4° C. After washing the plates three times with PBS-Tween, which contained phosphate buffered saline (PBS) with 0.5% (vol/vol) Tween 20 (Sigma, Poole, UK), the plates were blocked with 1% (wt/vol) bovine serum albumin (BSA) (Sigma, Poole, UK) at room temperature for 2 h. Following three washes with PBS-Tween, 50 μl of cell culture supernatants were added and incubated overnight at 4° C.; standard human TNF-alpha (Pharmingen, UK) ranging from 2000 to 31.25 pg/ml were included for each plate. After four washes with PBS-Tween, 50 μl of a second antibody, biotinylated mouse anti-human TNF-alpha monoclonal antibody (Pharmingen, UK) was added at 0.5 μg/1 ml diluted in 1% BSA in PBS-Tween and incubated at room temperature for 1 h. Following four washes, the bound biotinylated antibody was detected with 50 μl of a 1:1,000 dilution of Streptavidin-peroxidase (Pharmingen, UK). At the end of an hour incubation at room temperature, the plates were thoroughly washed six times with PBS-Tween and the assay was developed by the addition of 100 μl of 0.1 mg/ml of tetramethyl benzidine subtrate (Sigma, Poole, UK) in 0.1 M sodium acetate buffer, pH 6 containing 0.03% H2O2. The enzyme reaction was stopped with 50 μl of 2.5 M H2SO4 after an incubation of 10 minutes at room temperature and the development was read at 450 nm with a spectrophotometric 96-well plate reader (Dynex).

[4] = tested on: murine spleen cells; details: Infection and Immunity vol.66 no.1, 1998; cited from earlier work

| Structure (SMILES) | effect of OdDHL alone on murine splenocyte proliferation ([1]; 6.25 μM, alone) | IC50 ([1]; ConA 1 μg/ml, 100,000 spleen cells, Experiment I, read-out: IC50 in inhibition of ConA induced murine splenocyte proliferation) [µM] | inhibition of ConA induced murine splenocyte proliferation (cpm), in words ([1]; listed as OdDHL) | effect of OdDHL alone on ConA induced hPBMC proliferation ([2]; 6.25 μM, alone) | inhibition of ConA induced proliferation of human PBMC (cpm), in words ([2]; ConA 1 μg/ml) | IC50 ([2]; human PBMC source B) [µM] | IC50 ([2]; human PBMC source C) [µM] | IC50 ([2]; human PBMC source D) [µM] | IC50 ([3]; Experiment III, read-out: IC50 in inhibition of LPS induced production of TNF-α by human PBMC) [µM] | inhibition of LPS induced TNF-α production by human PBMC, in words ([3]; listed as OdDHL) | inhibition of ConA mitogen stimulated proliferation of murine spleen cells [4] | inhibition of ConA induced murine splenocyte proliferation (cpm), in words [1] | inhibition of ConA induced murine splenocyte proliferation (cpm), in words ([1]; listed as 2-heptyl-3-hydroxy-4(1H)quinolone) | inhibition of LPS induced TNF-α production by human PBMC, in words [3] |
| --- | --- | --- | --- | --- | --- | --- | --- | --- | --- | --- | --- | --- | --- | --- |
| CCCCCCCCCC(=O)CC(=O)N[C@H]1CCOC1=O [Example 6] | inactive | 4 | inhibits splenocyte proliferation; also recorded: inhibit the proliferation | inactive | inhibited proliferation of human PBMC | 60 | 7 | 34 | 17 | inhibited the secretion | inhibiting | – | – | – |
| CCCCCCCc1[nH]c2ccccc2c(=O)c1O [PQS] | – | – | – | – | – | – | – | – | – | – | – | inhibit the proliferation | inhibits splenocyte proliferation | not inhibited |
